Measurements from PMC7435722, “Apoferritin and Apoferritin-Capped Metal Nanoparticles Inhibit Arginine Kinase of Trypanosoma brucei” (Molecules, 2020).
Where two headings read alike, the source gives them in different places.

Tested on: T1, arginine kinase of T. brucei (recombinant form)
T1 construct: gene AK1; recombinant, obtained from Rhodes University laboratory
Assay: phosphate release, molybdate colorimetric […] nm, nonlinear Michaelis-Menten fit
Assay type: biochemical, Trypanosoma brucei
Settings: no inhibitor, Mg sulfate, 100 mM Tris-HCl pH 8.6, 30 °C

Row | Structure (SMILES) | Km (2 mM L-arginine fixed, ATP 0.1-0.5 mM, read-out: Km (ATP)) | Km (0.5 mM ATP fixed, L-arginine 0.5-2.5 mM, read-out: Km (L-arginine))
1 | Nc1ncnc2c1ncn2[C@@H]1O[C@H](COP(=O)(O)OP(=O)(O)OP(=O)(O)O)[C@@H](O)[C@H]1O [ATP] | 5 µM | –
2 | N=C(N)NCCC[C@H](N)C(=O)O [L-arginine] | – | 21 ± 10 µM
